# Measurements reported in patent US20240239802A1, “CRYSTAL FORM OF PYRROLOPYRIMIDINE COMPOUND AND PREPARATION METHOD FOR CRYSTAL FORM” (ZHEJIANG LONGCHARM BIO-TECH PHARMA. CO., LTD., priority 2021, published 2024).
# Key:
# [1] = Pharmacokinetics (intravenous) in CD-1 mice; type: in vivo; details: for AUCu: AUCu = AUC0-inf × Unbound PPB (Mouse)
# Protocol: The compound of formula (I) and the reference example were mixed with vehicle 0.10 mg/mL in 10% NMP/60% PEG400/30% H2O, vortexed and sonicated to prepare a 0.1 mg/mL clear solution. Select CD-1 male mice aged 7 to 10 weeks and administer the candidate compound solution intravenously at a dose of 0.21 mg/kg.
# The whole blood was collected for a certain period of time to prepare plasma, and the drug concentration was analyzed by LC-MS/MS method. Pharmacokinetic parameters were calculated by Phoenix WinNonlin software (Pharsight, USA).
# Unbound PPB (Mouse) = type: in vitro ADME
# [2] = Pharmacokinetics (intravenous) in SD rats; type: in vivo; details: for AUCu: 0.51 / 0.49 mg/kg, AUCu = AUC0-inf × Unbound PPB (Rat in vivo test PPB)
# Protocol: (§1) The compound of formula (I) and the reference example were mixed with vehicle 0.10 mg/mL in 10% NMP/60% PEG400/30% H2O, vortexed and sonicated to prepare a 0.5 mg/mL clear solution. SD rats aged 7 to 10 weeks were selected and given the candidate compound solution intravenously. Whole blood was collected for a certain period of time to prepare plasma, and the drug concentration was analyzed by LC-MS/MS. Pharmacokinetic parameters were calculated with Phoenix WinNonlin software (Pharsight, USA).
# [3] = Unbound PPB (Rat in vivo test PPB); type: in vitro ADME
# [4] = test system: human B-cell lymphoma OCI-LY10 cells; assay: OCI-LY10 SCID mouse subcutaneous xenograft tumor model; type: in vivo, SCID mice; details: for T/C / TGI: Day 20; for Tumor volume (Day 0) / Tumor volume (Day 20): Mean ± SEM
# Protocol: OCI-LY10SCID mouse xenograft tumor model:
# Experimental Method: Subcutaneous Xenograft Tumor Model in Mice with Human B-Cell Lymphoma
# Tumor cells in the logarithmic growth phase were collected and resuspended in IMDM basal medium. Matrigel was added to adjust the concentration of cells to 4×10^7/Ml. Under sterile conditions, SCID mice were inoculate with cell suspension subcutaneously on the right back at a concentration of 4×10^6/0.1 mL/mouse. When the animal tumor reached about 131.55-227.87 mm^3, the tumor-bearing mice were divided into 5 groups according to the size of the tumor volume, with 8 […] in each group. On the day of the experiment, the animals were given corresponding drugs according to the groups.
# During the experiment, the body weight and tumor size of the animals were measured 3 times a week, and the clinical symptoms of the animals were observed and recorded every day, and each administration was referred to the last weighed animal body weight.
# The length (a) and width (b) of the tumor were measured with a digital vernier caliper, and tumor volume (Tumor volume, TV) was calculated according to the formula below: […]
# [5] = Pharmacokinetics (oral) in SD rats; type: in vivo; details: for AUCu: 1.9 / 1.8 mg/kg, AUCu = AUC0-inf × Unbound PPB (Rat in vivo test PPB)
# Protocol: The compound of formula (I) and the reference example were mixed with vehicle 10% NMP/60% PEG400/30% H2O, vortexed and sonicated to prepare a 2 mg/mL clear solution. SD rats aged 7 to 10 weeks were selected, and the candidate compound solution was administered orally.
# Whole blood was collected for a certain period of time to prepare plasma, and the drug concentration was analyzed by LC-MS/MS method, and the pharmacokinetic parameters were calculated by Phoenix WinNonlin software (Pharsight, USA).
# [6] = Pharmacokinetics (oral administration) in CD-1 mice; type: in vivo; details: for AUCu: AUCu = AUC0-inf × Unbound PPB (Mouse)
# Protocol: as §1, with “vehicle” for “vehicle 0.10 mg/mL in”, “0.6” for “0.5”, “Male CD-1 mice” for “SD rats”, “selected,” for “selected”, “and” for “and given”, “was administered orally by gavage at a dose of 3.1 mg/kg.” for “intravenously.”
# [7] = Solid stability test (XRPD) under high temperature, high humidity and strong light; type: physicochemical
# Protocol: According to the “Guiding Principles for Stability Testing of Raw Materials and Preparations” (Chinese Pharmacopoeia 2015 Edition Four General Rules 9001), the crystal form C of the compound of formula (I) was investigated for its stability under high temperature (60° C., open), high humidity (a. room temperature/relative humidity 92.5%, open; b. 40° C./75% relative humidity, open; c. 60° C./75% relative humidity, open) and the stability under strong light (5000 1×, airtight).
# The crystal form C (15 mg) of the compound of formula (I) is weighed and placed on the bottom of the glass sample bottle to be spread into a thin layer. Samples placed under high-temperature and high-humidity conditions are sealed with aluminum foil, and small holes are formed on the aluminum foil to ensure that the samples can fully contact with the ambient air; and the sample placed under the strong illumination condition is sealed by a threaded bottle cap. Samples placed under different conditions were sampled and tested (XRPD) on the 5th day, 10th day, and 1 month. The test results were compared with the initial test results on day 0.
# [8] = Competitive experiment of crystal form B and crystal form C (suspension in methyl tert-butyl ether); type: physicochemical
# Protocol: Three groups of 30 mg crystal form B and 30 mg crystal form C compounds were respectively added to different 2.0 mL glass vials, and 0.6 mL methyl tert-butyl ether was added to obtain a suspension, and the suspension samples were placed in the magnetic heating stirrer was stirred at 20° C., 40° C. and 60° C. for 16 hours, the suspension was centrifuged to obtain a white solid, and the crystal form C of the compound of formula (I) was obtained by vacuum drying to constant weight.
# [9] = Hygroscopicity research by dynamic vapor adsorption (DVS); type: physicochemical; details: 25° C. and 80% RH
# Protocol: The vapor adsorption analysis (DVS) method of this application.
# Instrument model: SMS DVS Advantage dynamic vapor adsorption instrument
# Test conditions: Take a sample (10-15 mg) and place it in a DVS sample tray for testing.
# The detailed DVS parameters are as follows:
# Balance: dm/dt=0.01%/min (shortest: 10 min, longest: 180 min)
# RH (%) test range: 0%-90%-0%
# SMS DVS Advantage dynamic vapor adsorption instrument
# Taking 10-15 mg of compound crystal form C of formula (I) and placing it in a DVS sample tray for testing.
# BTK^C481S = BTK^C481S (Homo sapiens (Human), UniProt Q06187, C481S); assay: BTK enzyme activity test (33P-ATP filtration-binding); type: biochemical
# Protocol: The specific experimental process of BTK enzyme activity test is as follows:
# Buffer: 20 mM hydroxyethylpiperazine ethylsulfuric acid (Hepes) (pH 7.5), 10 mM magnesium chloride, 1 mM ethylene glycol bisaminoethyl ether tetraacetic acid (EGTA), 0.02% polyoxyethylene lauryl ether (Brij35), 0.02 mg/mL BSA, 0.1 mM sodium vanadate (Na3VO4), 2 mM dithiothreitol (DTT), 1% DMSO, 200 μM adenosine triphosphate (ATP).
# 1. Configuring the substrate in the newly prepared reaction buffer
# 2. Adding the required cofactors to the above substrate solution
# 3. Adding the kinase BTK^C481S to the above substrate solution and mixing well
# 4. Adding the compound dissolved in DMSO to the kinase reaction mixture through
# Echo550 (Acoustic technology; nanoliter range), and incubating at room temperature for 20 minutes
# 5. Adding ^33P-ATP (with a specific activity of 10 μCi/μL) into the reaction mixture to initiate the reaction
# 6. Incubating at room temperature for 2 hours
# 7. Detection of radioactivity by filtration-binding method
# 8. Kinase activity data represent the percentage of remaining kinase activity in the test sample compared to the vehicle (dimethyl sulfoxide) reaction.
# [10] = mouse, plasma, 0.21 mg/kg, CD-1 male mice
# [11] = rat, plasma, SD rats, 0.51 mg/kg (Reference Example) / 0.49 mg/kg (Compound of Formula (I))
# [12] = rat, plasma, SD rats, 1.9 mg/kg (Reference Example) / 1.8 mg/kg (Compound of Formula (I))
# [13] = mouse, plasma, 3.1 mg/kg, CD-1 male mice
# Chain of BTK^C481S (Q06187 whole entry C481S): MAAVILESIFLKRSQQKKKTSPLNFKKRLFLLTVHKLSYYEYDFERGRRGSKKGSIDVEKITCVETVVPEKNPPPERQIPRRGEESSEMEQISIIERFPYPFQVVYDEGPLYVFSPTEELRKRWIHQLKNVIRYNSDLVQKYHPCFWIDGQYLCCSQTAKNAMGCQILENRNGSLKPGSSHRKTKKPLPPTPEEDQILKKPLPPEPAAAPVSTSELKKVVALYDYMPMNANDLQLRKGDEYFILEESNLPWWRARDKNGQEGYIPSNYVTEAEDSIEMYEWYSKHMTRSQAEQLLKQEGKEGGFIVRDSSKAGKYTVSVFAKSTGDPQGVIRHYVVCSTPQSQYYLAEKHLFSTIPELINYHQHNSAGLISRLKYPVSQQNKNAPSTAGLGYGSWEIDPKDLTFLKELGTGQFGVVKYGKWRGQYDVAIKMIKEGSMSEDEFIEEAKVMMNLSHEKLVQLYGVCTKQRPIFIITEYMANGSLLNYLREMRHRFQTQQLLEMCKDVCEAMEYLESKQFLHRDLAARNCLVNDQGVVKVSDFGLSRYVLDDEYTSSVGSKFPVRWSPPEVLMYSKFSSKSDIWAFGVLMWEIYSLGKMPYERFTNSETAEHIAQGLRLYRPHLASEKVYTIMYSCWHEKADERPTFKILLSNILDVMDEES
smiles,measurement,setting,value
O=C(c1ccc(Oc2ccccc2)cc1Cl)c1c[nH]c2ncnc(N[C@@H]3CC[C@@H](CO)OC3)c12 [Reference Example],AUCu,"[1]; 0.21 mg/kg, CD-1 male mice",0.007 µM·h
same,AUC(0-inf),[1]; [10],3.49 µM·h
same,C0,[1]; [10],1040 nM
same,Vd,[1]; [10],0.7 L/kg
same,clearance,[1]; [10],2.01 mL/min/kg
same,half-life,[1]; [10],4.34 h
same,Unbound PPB,Unbound PPB (Mouse); Table 10,0.2%
same,Unbound PPB,Unbound PPB (Mouse); Table 11,0.2%
same,AUCu,[2]; SD rats,0.0019 µM·h
same,AUC(0-inf),[2]; [11],1.92 µM·h
same,C0,[2]; [11],800 nM
same,Vd,[2]; [11],1.57 L/kg
same,clearance,[2]; [11],9.08 mL/min/kg
same,half-life,[2]; [11],2.02 h
same,Unbound PPB,[3]; Table 12,0.1%
same,Unbound PPB,[3]; Table 13,0.1%
same,T/C,[4]; 45 mg/kg PO QD × 21,42.45%
same,TGI,[4]; 45 mg/kg PO QD × 21,74.47%
same,Tumor volume (Day 0),[4]; 45 mg/kg PO QD × 21,183.86 ± 9.48 mm^3
same,Tumor volume (Day 20),[4]; 45 mg/kg PO QD × 21,330.27 ± 19.35 mm^3
same,AUCu,[5]; SD rats,0.005 µM·h
same,AUC(0-inf),[5]; [12],5.03 µM·h
same,Cmax,[5]; [12],607 nM
same,half-life,[5]; [12],2.41 h
same,AUCu,"[6]; 3.1 mg/kg, CD-1 male mice",0.0882 µM·h
same,AUC(0-inf),[6]; [13],44.1 µM·h
same,Cmax,[6]; [13],3840 nM
same,half-life,[6]; [13],3.75 h
CO[C@@H]1C[C@@H](CO)OC[C@@H]1Nc1ncnc2[nH]cc(C(=O)c3ccc(Oc4ccccc4)cc3Cl)c12 [Form C],T/C,[4]; 15 mg/kg PO QD × 21,65.50%
same,TGI,[4]; 15 mg/kg PO QD × 21,49.61%
same,Tumor volume (Day 0),[4]; 15 mg/kg PO QD × 21,182.02 ± 9.76 mm^3
same,Tumor volume (Day 20),[4]; 15 mg/kg PO QD × 21,471.07 ± 16.55 mm^3
same,T/C,[4]; 30 mg/kg PO QD × 21,45.05%
same,TGI,[4]; 30 mg/kg PO QD × 21,71.75%
same,Tumor volume (Day 0),[4]; 30 mg/kg PO QD × 21,180.91 ± 9.67 mm^3
same,Tumor volume (Day 20),[4]; 30 mg/kg PO QD × 21,342.95 ± 20.06 mm^3
same,T/C,[4]; 45 mg/kg PO QD × 21,29.25%
same,TGI,[4]; 45 mg/kg PO QD × 21,92.82%
same,Tumor volume (Day 0),[4]; 45 mg/kg PO QD × 21,180.19 ± 10.07 mm^3
same,Tumor volume (Day 20),[4]; 45 mg/kg PO QD × 21,221.38 ± 37.11 mm^3
same,"Tumor inhibitory effect versus reference compound, conclusion",[4]; at the same dose,obviously better than that of reference compound
same,"Tumor growth inhibition, conclusion",[4]; inhibitory effect positively correlated with dose,significantly inhibit tumor growth
same,Crystal Form (XRPD),"[7]; 0 day, initial",Form C
same,Crystal Form (XRPD),"[7]; High humidity (40° C./75% relative humidity, open), 1 month",Form C
same,Crystal Form (XRPD),"[7]; High humidity (60° C./75% relative humidity, open), 1 month",Form C
same,Crystal Form (XRPD),"[7]; High humidity (room temperature/relative humidity 92.5%, open), 5th day",Form C
same,Crystal Form (XRPD),"[7]; High humidity (room temperature/relative humidity 92.5%, open), 10th day",Form C
same,Crystal Form (XRPD),"[7]; High temperature (60° C., open), 5th day",Form C
same,Crystal Form (XRPD),"[7]; High temperature (60° C., open), 10th day",Form C
same,Crystal Form (XRPD),"[7]; Strong light (5000 lx, airtight), 10th day",Form C
same,"Solid stability, conclusion","[7]; high temperature, high humidity and strong light conditions","Conclusion: The crystal form C of the compound of formula (I) has good stability under high temperature, high humidity and strong light conditions."
same,"Relative stability compared with Form B, conclusion",[8],"Conclusion: Compared with Form B, Form C is more stable."
same,Hygroscopicity classification,[9],slightly hygroscopic (2% > ΔW % ≥ 0.2%)
same,ΔW (hygroscopic weight gain),[9]; DVS,0.262%
CO[C@@H]1C[C@@H](CO)OC[C@@H]1Nc1ncnc2[nH]cc(C(=O)c3ccc(Oc4ccccc4)cc3Cl)c12 [Compound of formula (I)],"Inhibitory effect on BTK C481S mutation, conclusion",BTK^C481S,strong inhibitory effect
same,"Free drug concentration in mouse plasma, conclusion",[1],higher than that of the reference compound
same,AUCu,"[1]; 0.21 mg/kg, CD-1 male mice",0.0124 µM·h
same,Unbound PPB,Unbound PPB (Mouse); Table 10,0.4%
same,Unbound PPB,Unbound PPB (Mouse); Table 11,0.4%
same,"Free drug concentration in rat plasma, conclusion",[2],higher than that of the reference compound
same,AUCu,[2]; SD rats,0.0034 µM·h
same,Unbound PPB,[3]; Table 12,0.2%
same,Unbound PPB,[3]; Table 13,0.2%
same,"Free drug concentration in rat plasma, conclusion",[5],higher than that of the reference compound
same,AUCu,[5]; SD rats,0.0078 µM·h
same,"Free drug concentration in mouse plasma, conclusion",[6],higher than that of the reference compound
same,AUCu,"[6]; 3.1 mg/kg, CD-1 male mice",0.133 µM·h
